Measured values: PubChem BioAssay AID1259411 (Chemical Carcinogenesis Research Information System (CCRIS), 2018)
Calls of active or inactive are those of the source. No rule for the calls is given here.

System: rodent carcinogenicity bioassays, tumor incidence
Experiment: CCRIS carcinogenicity studies
Conditions: Dose: 0, Dose: 0
How it was run: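 NCI-built, expert-reviewed records of carcinogenicity and related test outcomes (mutagenicity, tumor promotion/inhibition) compiled from published and report sources, historical span 1985-2011, not updated.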

C[C@]12CCC(=O)C=C1CC[C@@H]1[C@@H]2CC[C@]2(C)C(=O)CC[C@@H]12
carcinogen call (Species: Mouse, Strain/Sex: B6C3F1/Female (50/Group), Route: Oral, 2, 10, 50 mg/kg in 0.5% methylcellulose solution, by gavage, 5 d/wk for 2 yr, 2, 10, 50 mg/kg in 0.5% methylcellulose solution, by gavage, 5 d/wk for 2 yr, Tumor Site: Type of Lesion: Liver: hepatocellular adenoma (14/50, 16/50, 18/50, 28/50), hepatocellular carcinoma (5/50, 13/50, 15/50, 15/50), hepato, Tumor Site: Type of Lesion: Liver: hepatocellular adenoma (14/50, 16/50, 18/50, 28/50), hepatocellular carcinoma (5/50, 13/50, 15/50, 15/50), hepato): active; positive. (authors describe as clear evidence)
carcinogen call (Species: Mouse, Strain/Sex: B6C3F1/Male (50/Group), Route: Oral, 10, 20, 50 mg/kg in 0.5% methylcellulose solution, by gavage, 5 d/wk for 2 yr, 10, 20, 50 mg/kg in 0.5% methylcellulose solution, by gavage, 5 d/wk for 2 yr, Tumor Site: Type of Lesion: Liver: hepatocellular adenoma, multiple (16/50, 27/50, 23/50, 34/50), hepatocellular adenoma (includes multiples) (32/50): active; positive. (authors describe as clear evidence)
carcinogen call (Species: Rat, Strain/Sex: F344/N / Female (50/Group), Route: Oral, 10, 20, 50 mg/kg in 0.5% methylcellulose solution, by gavage, 5 d/wk for 2 yr, 10, 20, 50 mg/kg in 0.5% methylcellulose solution, by gavage, 5 d/wk for 2 yr): inactive; negative. (authors describe as equivocal evidence based on incidence of mononucl
carcinogen call (Species: Rat, Strain/Sex: F344/N / Male (50/Group), Route: Oral, 10, 20, 50 mg/kg in 0.5% methylcellulose solution, by gavage, 5 d/wk for 2 yr, 10, 20, 50 mg/kg in 0.5% methylcellulose solution, by gavage, 5 d/wk for 2 yr): inactive; negative. (authors describe as equivocal evidence based on alveolar/bronchiolar

c1ccc2c(c1)Oc1ccccc1O2
carcinogen call (Species: MOUSE, Strain/Sex: B6C3F1/FEMALE, Route: ORAL, 5000, 10000 PPM IN DIET, 5000, 10000 PPM IN DIET): inactive; negative
carcinogen call (Species: MOUSE, Strain/Sex: B6C3F1/MALE, Route: ORAL, 5000, 10000 PPM IN DIET, 5000, 10000 PPM IN DIET): inactive; negative
carcinogen call (Species: RAT, Strain/Sex: OSBORNE-MENDEL/FEMALE, Route: ORAL, 5000, 10000 PPM IN DIET, 5000, 10000 PPM IN DIET): inactive; negative
carcinogen call (Species: RAT, Strain/Sex: OSBORNE-MENDEL/MALE, Route: ORAL, 5000, 10000 PPM IN DIET, 5000, 10000 PPM IN DIET): inactive; negative

ClCC(Cl)CCl
carcinogen call (Species: GUPPIE, Strain/Sex: FEMALE, Route: AQUARIUM WATER, 4.5, 9, 18 MG/L FOR 9 MO THEN IN CLEAN WATER FOR 7 MO (STUDY DURATION: 16 MO), 4.5, 9, 18 MG/L FOR 9 MO THEN IN CLEAN WATER FOR 7 MO (STUDY DURATION: 16 MO), Tumor Site: Type of Lesion: LIVER: CHOLANGIOCARCINOMA, HEPATOCELLULAR ADENOMA OR CARCINOMA): active; positive
carcinogen call (Species: GUPPIE, Strain/Sex: FEMALE, Route: AQUARIUM WATER, 4.5, 9, 18 MG/L FOR 16 MO (STUDY DURATION: 16 MO), 4.5, 9, 18 MG/L FOR 16 MO (STUDY DURATION: 16 MO), Tumor Site: Type of Lesion: LIVER: HEPATOCELLULAR ADENOMA OR CARCINOMA, CHOLANGIOCARCINOMA): active; positive
carcinogen call (Species: GUPPIE, Strain/Sex: MALE, Route: AQUARIUM WATER, 4.5, 9, 18 MG/L FOR 9 MO THEN IN CLEAN WATER FOR 7 MO (STUDY DURATION: 16 MO), 4.5, 9, 18 MG/L FOR 9 MO THEN IN CLEAN WATER FOR 7 MO (STUDY DURATION: 16 MO), Tumor Site: Type of Lesion: LIVER: HEPATOCELLULAR ADENOMA OR CARCINOMA): active; positive
carcinogen call (Species: GUPPIE, Strain/Sex: MALE, Route: AQUARIUM WATER, 4.5, 9, 18 MG/L FOR 16 MO (STUDY DURATION: 16 MO), 4.5, 9, 18 MG/L FOR 16 MO (STUDY DURATION: 16 MO), Tumor Site: Type of Lesion: LIVER: HEPATOCELLULAR ADENOMA OR CARCINOMA): active; positive
carcinogen call (Species: MEDAKA, Strain/Sex: FEMALE, Route: AQUARIUM WATER, 4.5, 9, 18 MG/L FOR 9 MO THEN IN CLEAN WATER FOR 4 MO (STUDY DURATION: 13 MO), 4.5, 9, 18 MG/L FOR 9 MO THEN IN CLEAN WATER FOR 4 MO (STUDY DURATION: 13 MO), Tumor Site: Type of Lesion: LIVER: CHOLANGIOCARCINOMA, HEPATOCELLULAR ADENOMA OR CARCINOMA, GALL BLADDER: ADENOMA): active; positive
carcinogen call (Species: MEDAKA, Strain/Sex: FEMALE, Route: AQUARIUM WATER, 4.5, 9, 18 MG/L FOR 13 MO (STUDY DURATION: 13 MO), 4.5, 9, 18 MG/L FOR 13 MO (STUDY DURATION: 13 MO), Tumor Site: Type of Lesion: LIVER: CHOLANGIOCARCINOMA, HEPATOCELLULAR ADENOMA OR CARCINOMA, HEPATOCHOLANGIOCARCINOMA, GALL BLADDER: ADENOMA): active; positive
carcinogen call (Species: MEDAKA, Strain/Sex: MALE, Route: AQUARIUM WATER, 4.5, 9, 18 MG/L FOR 9 MO THEN IN CLEAN WATER FOR 4 MO (STUDY DURATION: 13 MO), 4.5, 9, 18 MG/L FOR 9 MO THEN IN CLEAN WATER FOR 4 MO (STUDY DURATION: 13 MO), Tumor Site: Type of Lesion: LIVER: CHOLANGIOCARCINOMA, HEPATOCELLULAR ADENOMA OR CARCINOMA, GALL BLADDER: ADENOMA): active; positive
carcinogen call (Species: MEDAKA, Strain/Sex: MALE, Route: AQUARIUM WATER, 4.5, 9, 18 MG/L FOR 13 MO (STUDY DURATION: 13 MO), 4.5, 9, 18 MG/L FOR 13 MO (STUDY DURATION: 13 MO), Tumor Site: Type of Lesion: LIVER: CHOLANGIOCARCINOMA, HEPATOCELLULAR ADENOMA OR CARCINOMA, GALL BLADDER: ADENOMA, HEPATOCHOLANGIOCARCINOMA): active; positive
carcinogen call (Species: MOUSE, Strain/Sex: B6C3F1/FEMALE, Route: GAVAGE, 6, 20, 60 MG/KG BW IN CORN OIL 5 D/WK FOR 104 WK (STUDY DURATION: 2 YR), 6, 20, 60 MG/KG BW IN CORN OIL 5 D/WK FOR 104 WK (STUDY DURATION: 2 YR), Tumor Site: Type of Lesion: HARDERIAN GLAND: ADENOMA, LIVER: HEPATOCELLULAR ADENOMA, PHARYNX: SQUAMOUS CELL CARCINOMA, FORESTOMACH: SQUAMOUS CELL PA, Tumor Site: Type of Lesion: HARDERIAN GLAND: ADENOMA, LIVER: HEPATOCELLULAR ADENOMA, PHARYNX: SQUAMOUS CELL CARCINOMA, FORESTOMACH: SQUAMOUS CELL PA): active; positive
carcinogen call (Species: MOUSE, Strain/Sex: B6C3F1/MALE, Route: GAVAGE, 6, 20, 60 MG/KG BW IN CORN OIL 5 D/WK FOR 104 WK (STUDY DURATION: 2 YR), 6, 20, 60 MG/KG BW IN CORN OIL 5 D/WK FOR 104 WK (STUDY DURATION: 2 YR), Tumor Site: Type of Lesion: HARDERIAN GLAND: ADENOMA, LIVER: HEPATOCELLULAR ADENOMA, FORESTOMACH: SQUAMOUS CELL PAPILLOMA, SQUAMOUS CELL CARCINOMA, Tumor Site: Type of Lesion: HARDERIAN GLAND: ADENOMA, LIVER: HEPATOCELLULAR ADENOMA, FORESTOMACH: SQUAMOUS CELL PAPILLOMA, SQUAMOUS CELL CARCINOMA): active; positive
carcinogen call (Species: RAT, Strain/Sex: F344/FEMALE, Route: GAVAGE, 3, 10, 30 MG/KG BW IN CORN OIL 5 D/WK FOR 104 WK (STUDY DURATION: 2 YR), 3, 10, 30 MG/KG BW IN CORN OIL 5 D/WK FOR 104 WK (STUDY DURATION: 2 YR), Tumor Site: Type of Lesion: CLITORAL GLAND: ADENOMA, CARCINOMA, MAMMARY GLAND: CARCINOMA, PHARYNX: SQUAMOUS CELL CARCINOMA, FORESTOMACH: SQUAMOUS CE, Tumor Site: Type of Lesion: CLITORAL GLAND: ADENOMA, CARCINOMA, MAMMARY GLAND: CARCINOMA, PHARYNX: SQUAMOUS CELL CARCINOMA, FORESTOMACH: SQUAMOUS CE): active; positive
carcinogen call (Species: RAT, Strain/Sex: F344/MALE, Route: GAVAGE, 3, 10, 30 MG/KG BW IN CORN OIL 5 D/WK FOR 104 WK (STUDY DURATION: 2 YR), 3, 10, 30 MG/KG BW IN CORN OIL 5 D/WK FOR 104 WK (STUDY DURATION: 2 YR), Tumor Site: Type of Lesion: KIDNEY (RENAL TUBULE): ADENOMA, PANCREAS: ADENOMA, PHARYNX: SQUAMOUS CELL CARCINOMA, PREPUTIAL GLAND: ADENOMA, CARCINOMA, Tumor Site: Type of Lesion: KIDNEY (RENAL TUBULE): ADENOMA, PANCREAS: ADENOMA, PHARYNX: SQUAMOUS CELL CARCINOMA, PREPUTIAL GLAND: ADENOMA, CARCINOMA): active; positive
